# Reference: patent US11779014B2, “Adjuvants” (SYNGENTA PARTICIPATIONS AG, priority 2017, dated 2023)
# Tests used:
# [1] = De-gelling temperature of aqueous surfactant blends by low shear rheology (Bohlin Gemini rheometer, storage modulus vs temperature); assay type: physicochemical
# Method: The temperatures at which blends of capped and uncapped surfactants de-gel were determined by standard low shear rheology with a Bohlin™ Gemini rheometer. The storage modulus (G′) at 1 Hz was determined at a strain of 0.001-0.002 in a standard C14 cup and bob geometry over a temperature range of 5-70° C., the exact range depending on the de-gelling point of the sample. Plots of storage modulus versus temperature were constructed and the de-gelling temperature was taken to be the point at which the modulus begins to fall rapidly from its high value in the gelled state (typically ca. 10^5 Pa) down to the final value in the de-gelled state (less than 10 Pa). Blends of surfactants were prepared at from 25 to 40% w/w total surfactant concentration in water. Samples were left in an oven at 55° C. for several days to ensure that the mixtures were homogeneous. Samples were placed in the C14 cup and the samples were de-gelled by raising the temperature in the rheometer, the bob was then inserted and the sample was then cooled at 1° C./min, whilst the storage modulus was regularly recorded during the cooling. Once the final temperature had been reached (i.e. when the sample had gelled), the temperature was then increased again and the modulus again recorded. The de-gelling temperature was determined from the increasing temperature cycle.
# Degelling temperatures—the measurements relied on the same method as for ‘Example 1’ but just at 30% w/w total surfactant concentration.
# De-gelling temperatures were measured using the same method as in Example 1.
# (§1) This example provides de-gelling, cloud point and adjuvancy data for dodecyl 23 ethoxylate with n-hexyl cap and hexadecyl 20 ethoxylate with n-hexyl cap Cloud points were measured as described in example 1 for 1% aqueous solutions of the capped and uncapped surfactants both individually and as blends (see Table 30). Degelling temperatures were also measured as outlined in example 1 for 25, 30, 35 and 40% aqueous solutions of the capped and uncapped surfactants both individually and as blends (see Table 31).
# (§2) This example provides de-gelling, cloud point and adjuvancy data for oleyl 20 ethoxylate with n-butyl, n-pentyl or benzyl ether caps end capped oleyl 20 ethoxylate. Cloud points were measured as described in example 1 for 1% aqueous solutions of the capped and uncapped surfactants both individually and as blends. Degelling temperatures were also measured as outlined in example 1 for 25, 30, 35 and 40% aqueous solutions o of the capped and uncapped surfactants both individually and as blends.
# [2] = Cloud point measurement (absorbance at 500 nm as a function of temperature); assay type: physicochemical; details: 1% aqueous solutions
# Method: Consistent with the standard method for measuring the cloud point of surfactants, the cloud point of each of the above blends was measured at a total concentration of 1% w/w in water using a Perkin Elmer spectrophotometer fitted with a PTP6 temperature controller. The absorbance of the solution at 500 nm wavelength was determined as a function of temperature. The cloud point was recorded as the onset of a rapid increase in absorbance as the solution began to cloud.
# Cloud point—the measurements relied on the same method as for ‘Example 1’
# Cloud points—were measured using the same method as in Example 1.
# as §1, §2
# Avena fatua (AVEFA) = assay: Glasshouse adjuvancy test for pinoxaden on AVEFA; assay type: in vivo; details: pinoxaden 15 g ai/ha, total surfactant 0.2% w/v, 21 days
# Method: The efficacy of 1:1 blends of oleyl 20EO with oleyl 20EO with either n-hexanoyl, n-octanoyl or 2-ethyl hexanoyl ester caps as adjuvants for the herbicide pinoxaden was tested in a glasshouse against two weed species, sown into standard soil in pots and cultivated under controlled conditions in a glasshouse (20/16° C. day/night; 16 hours light; 65% humidity). Pinoxaden was added to the spray tank as a standard EC (emulsifiable concentrate) formulation. The plants were sprayed with pinoxaden at rates of 7.5 or 15 grams of pesticide per hectare using a laboratory track sprayer which delivered the aqueous spray composition at a rate of 200 litres per hectare, using a flat fan nozzle (Teejet 11002VS) at 2 bar. The spray solutions also contained the oleyl 20EO alone or in the 1:1 blends with the capped surfactants. The adjuvants were added to the spray solution at a total surfactant rate of 0.2% w/v. All spray solutions also contained 10% w/w of iso-propanol. The weed species and their BBCH growth stage at spraying were Avena fatua (AVEFA; growth stage 13) and Setaria viridis (SETVI; growth stage 13). Each spray test was replicated three times. The test plants were then grown in a glasshouse under controlled conditions (20/16° C. day/night; 16 hours light; 65% humidity) and watered twice a day. The efficacy of the herbicide was assessed visually and expressed as a percentage of the leaf area killed. Samples were assessed at a time period of 21 days following application.
# Dodecyl 23EO and hexadecyl 20EO were capped with an n-hexyl ether cap. The efficacy of 1:1 blends of these with their uncapped counterparts were tested as adjuvants for the herbicide pinoxaden was tested in a glasshouse against two weed species, sown into standard soil in pots and cultivated under controlled conditions in a glasshouse (20/16° C. day/night; 16 hours light; 65% humidity). Pinoxaden was added to the spray tank as a standard EC (emulsifiable concentrate) formulation. The plants were sprayed with pinoxaden at a.i. rates of 7.5 or 15 grams per hectare using a laboratory track sprayer which delivered the aqueous spray composition at a rate of 200 litres per hectare, using a flat fan nozzle (Teejet 11002VS) at 2 bar. The spray solutions tested included the capped and uncapped alone or in the 1:1 blends with the capped surfactants. The adjuvants were added to the spray solution at a total surfactant rate of 0.2% w/v. All spray solutions also contained 10% w/w of iso-propanol. The weed species and their BBCH growth stage at spraying was Avena fatua (AVEFA; growth stage 12). Each spray test was replicated three times. The test plants were then grown in a glasshouse under controlled conditions (20/16° C. day/night; 16 hours light; 65% humidity) and watered twice a day. The efficacy of the herbicide was assessed visually and expressed as a percentage of the leaf area killed. Samples were assessed at a time period of 21 days following application.
# Oleyl 20EO was capped with -butyl, n-pentyl and n-benzyl caps. The efficacy of 1:1 blends of these with their uncapped counterparts were tested as adjuvants for the herbicide pinoxaden was tested in a glasshouse against two weed species, sown into standard soil in pots and cultivated under controlled conditions in a glasshouse (20/16° C. day/night; 16 hours light; 65% humidity). Pinoxaden was added to the spray tank as a standard EC (emulsifiable concentrate) formulation. The plants were sprayed with pinoxaden at a.i. rates of 7.5 or 15 grams per hectare using a laboratory track sprayer which delivered the aqueous spray composition at a rate of 200 litres per hectare, using a flat fan nozzle (Teejet 11002VS) at 2 bar. The spray solutions tested included the capped and uncapped alone or in the 1:1 blends with the capped surfactants. The adjuvants were added to the spray solution at a total surfactant rate of 0.2% w/v. All spray solutions also contained 10% w/w of iso-propanol.
# [3] = total surfactant concentration 25% w/w, Table 35
# [4] = total surfactant concentration 30% w/w, Table 35
# [5] = total surfactant concentration 35% w/w, Table 35
# [6] = total surfactant concentration 40% w/w, Table 35
# [7] = total surfactant concentration 25% w/w, Table 31
# [8] = total surfactant concentration 30% w/w, Table 31
# [9] = total surfactant concentration 35% w/w, Table 31
# [10] = total surfactant concentration 40% w/w, Table 31
"De-gelling temperature [1, 3] [°C]","De-gelling temperature [1, 4] [°C]","De-gelling temperature [1, 5] [°C]","De-gelling temperature [1, 6] [°C]",Cloud point ([2]; Table 34) [°C],"De-gelling temperature [1, 7] [°C]","De-gelling temperature [1, 8] [°C]","De-gelling temperature [1, 9] [°C]","De-gelling temperature [1, 10] [°C]",Cloud point ([2]; Table 30) [°C],Compound,"Mean control (Avena fatua (AVEFA); Example 9, growth stage 12) [%]","Mean control (Avena fatua (AVEFA); Example 7, growth stage 12) [%]"
<5,<5,5,15.1,38.7,,,,,,CCCCCCCC/C=C\CCCCCCCCOCCOCCOCCOCCOCCOCCOCCOCCOCCOCCOCCOCCOCCOCCOCCOCCOCCOCCOCCOCCOCc1ccccc1 [Oleyl 20EO n-benzyl ether],89.3,
,,,,,<5,<5,5.7,19.6,55.9,Hexadecyl 20EO n-hexyl ether,,93.3
,,,,,21.1,38.6,55.0,64.3,>90.0,dodecyl 23 ethoxylate [Dodecyl 23EO],,83.3
<5,27.3,34.0,36.1,55.9,,,,,,Oleyl 20EO n-pentyl ether,87.7,
